Measured values taken from ChEMBL document CHEMBL2384955, “Structure-activity relationships in aminosterol antibiotics: the effect of stereochemistry at the 7-OH group” (2013).
The source made the active and inactive calls. No cut-off for these calls is given here.

How the values were obtained:
[1] = tested on: Pseudomonas aeruginosa; assay: Antibacterial activity against Pseudomonas aeruginosa ATCC 27853 assessed as growth inhibition assessed as cell viability after 24 hrs by resazurin-based microplate assay; assay type: functional; settings: ATCC 27853, 24 h
[2] = tested on: Escherichia coli; assay: Antibacterial activity against Escherichia coli ATCC 25922 assessed as growth inhibition assessed as cell viability after 24 hrs by resazurin-based microplate assay; assay type: functional; settings: ATCC 25922, 24 h
[3] = tested on: Enterococcus faecalis; assay: Antibacterial activity against Enterococcus faecalis ATCC 29212 assessed as growth inhibition assessed as cell viability after 24 hrs by resazurin-based microplate assay; assay type: functional; settings: ATCC 29212, 24 h
[4] = tested on: Staphylococcus aureus; assay: Antibacterial activity against Staphylococcus aureus ATCC 29213 assessed as cell viability after 24 hrs by resazurin-based microplate assay; assay type: functional; settings: ATCC 29213, 24 h
[5] = tested on: Lipid bilayer; assay: Binding affinity to zwitterionic DOPC large unilamellar vesicle assessed as release of calcein at 1 mg/mL measured for 1 min by spectrophotometric analysis relative to control
[6] = tested on: Lipid bilayer; assay: Binding affinity to DOPC/DOPG large unilamellar vesicle assessed as release of calcein at 1 mg/mL measured for 1 min by spectrophotometric analysis
[7] = tested on: Lipid bilayer; assay: Binding affinity to DOPG large unilamellar vesicle assessed as release of calcein at 1 mg/mL measured for 1 min by spectrophotometric analysis

| MIC [1] [µg/mL] | MIC [2] [µg/mL] | MIC [3] [µg/mL] | MIC [4] [µg/mL] | Activity [5] | Activity [6] | Activity [7] | Structure (SMILES) |
| --- | --- | --- | --- | --- | --- | --- | --- |
| 4 | 8 | 2 | 2 | 50% | Active | Active | CC(C)[C@@H](CC[C@@H](C)[C@H]1CC[C@H]2[C@@H]3[C@H](O)C[C@H]4C[C@@H](NCCCNCCCCN)CC[C@]4(C)[C@H]3CC[C@]12C)OS(=O)(=O)O.CC(O)C(=O)O |
| 32 | 1 | 16 | 8 | 50% | inactive | Active | CC(C)[C@@H](CC[C@@H](C)[C@H]1CC[C@H]2[C@@H]3[C@@H](O)C[C@H]4C[C@@H](NCCCNCCCCNCCCN)CC[C@]4(C)[C@H]3CC[C@]12C)OS(=O)(=O)O.O=C(O)C(F)(F)F |
| 24 | 12 | 12 | 12 | inactive | inactive | inactive | CC(C)[C@@H](CC[C@@H](C)[C@H]1CC[C@H]2[C@@H]3[C@@H](O)C[C@H]4C[C@@H](NCCCNCCCCN)CC[C@]4(C)[C@H]3CC[C@]12C)OS(=O)(=O)O.O=C(O)C(F)(F)F |
| 8 | 2 | 32 | 4 | 50% | Active | Active | CC(C)[C@@H](CC[C@@H](C)[C@H]1CC[C@H]2[C@@H]3[C@H](O)C[C@H]4C[C@@H](NCCCNCCCCNCCCN)CC[C@]4(C)[C@H]3CC[C@]12C)OS(=O)(=O)O.Cl |
